The source made the active and inactive calls. No cut-off for these calls is given here.
Each molecule was assayed on NCI-H460 (assay: Growth inhibition of human NCI-H460 cells after 48 hrs by sulforhodamine B assay). Conditions: NCI-H460, 48 h.
Type: functional

Row | Compound | GI50 [µM]
1 | CCOC(=O)C(CCCc1cccc(N=[N+]=[N-])c1)c1ccccc1 (centres undefined) | > 150
2 | CCOC(=O)C(CCc1cccc(N=[N+]=[N-])c1)c1ccccc1 (centres undefined) | > 160
3 | CCOC(=O)C1CCC(c2ccc(N)cc2)c2ccccc21 (racemic) | 142
4 | CCOC(=O)C(CCc1ccc(N=[N+]=[N-])cc1)c1ccccc1 (centres undefined) | > 160
5 | CCOC(=O)C(CCCc1ccc(N)cc1)c1ccccc1 (centres undefined) | > 160
6 | CCOC(=O)C(CCc1ccc([N+](=O)[O-])cc1)c1ccccc1 (centres undefined) | > 150
7 | O=[N+]([O-])c1cccc(CCCO)c1 | > 250
8 | CCOC(=O)C(CCCc1ccc(N=[N+]=[N-])cc1)c1ccccc1 (centres undefined) | > 150
9 | CCOC(=O)C(CCCc1cccc(N)c1)c1ccccc1 (centres undefined) | 154
10 | COC(=O)/C=C/c1cccc([N+](=O)[O-])c1 | 175
11 | COC(=O)/C=C/c1ccc([N+](=O)[O-])cc1 | > 240
12 | CCOC(=O)C(CCCc1cccc([N+](=O)[O-])c1)c1ccccc1 (centres undefined) | > 150
13 | CCOC(=O)C(CCc1cccc([N+](=O)[O-])c1)c1ccccc1 (centres undefined) | 149

Second part, the molecule after the results:

Row | GI50 [µM] | Compound
14 | 132 | CCOC(=O)C(CCc1cccc(N)c1)c1ccccc1 (centres undefined)
15 | 112 | O=[N+]([O-])c1ccc(CCI)cc1
16 | 40.8 | CCOC(=O)C(CCc1ccc(N)cc1)c1ccccc1 (centres undefined)
17 | 19.4 | CCOC(=O)C(CCCc1ccc([N+](=O)[O-])cc1)c1ccccc1 (centres undefined)
18 | 19.2 | CCOC(=O)C1CCC2(C=CC(=O)C=C2)c2ccccc21 (centres undefined)
19 | 0.094 | COc1cccc2c1C(=O)c1c(O)c3c(c(O)c1C2=O)C[C@@](O)(C(=O)CO)C[C@@H]3O[C@H]1C[C@H](N)[C@H](O)[C@H](C)O1 [DOXORUBICIN]

The molecules below were run on WI-38 VA13 (assay: Growth inhibition of human VA13 cells after 48 hrs by sulforhodamine B assay). Conditions: not given.
Type: functional, cell-based

Row | Compound | growth inhibition (GI)
20 | CCOC(=O)C1CCC(c2ccc(N)cc2)c2ccccc21 (racemic) | inactive

What follows are molecules tested on MCF7 (assay: Growth inhibition of human MCF7 cells after 48 hrs by sulforhodamine B assay). Conditions: MCF7, 48 h.
Type: functional

Row | Compound | GI50 [µM]
21 | CCOC(=O)C(CCCc1cccc(N=[N+]=[N-])c1)c1ccccc1 (centres undefined) | 119
22 | CCOC(=O)C(CCc1cccc(N=[N+]=[N-])c1)c1ccccc1 (centres undefined) | 120
23 | CCOC(=O)C1CCC(c2ccc(N)cc2)c2ccccc21 (racemic) | 117
24 | CCOC(=O)C(CCc1ccc(N=[N+]=[N-])cc1)c1ccccc1 (centres undefined) | 125
25 | CCOC(=O)C(CCCc1ccc(N)cc1)c1ccccc1 (centres undefined) | 155
26 | CCOC(=O)C(CCc1ccc([N+](=O)[O-])cc1)c1ccccc1 (centres undefined) | 134
27 | O=[N+]([O-])c1cccc(CCCO)c1 | > 250
28 | CCOC(=O)C(CCCc1ccc(N=[N+]=[N-])cc1)c1ccccc1 (centres undefined) | > 150
29 | CCOC(=O)C(CCCc1cccc(N)c1)c1ccccc1 (centres undefined) | 109
30 | COC(=O)/C=C/c1cccc([N+](=O)[O-])c1 | 74.1
31 | COC(=O)/C=C/c1ccc([N+](=O)[O-])cc1 | 214
32 | CCOC(=O)C(CCCc1cccc([N+](=O)[O-])c1)c1ccccc1 (centres undefined) | 149
33 | CCOC(=O)C(CCc1cccc([N+](=O)[O-])c1)c1ccccc1 (centres undefined) | 92.7

Now from value to molecule:

Row | GI50 [µM] | Compound
34 | 104 | CCOC(=O)C(CCc1cccc(N)c1)c1ccccc1 (centres undefined)
35 | 55.8 | O=[N+]([O-])c1ccc(CCI)cc1
36 | 36.3 | CCOC(=O)C(CCc1ccc(N)cc1)c1ccccc1 (centres undefined)
37 | 16.4 | CCOC(=O)C(CCCc1ccc([N+](=O)[O-])cc1)c1ccccc1 (centres undefined)
38 | 16.4 | CCOC(=O)C1CCC2(C=CC(=O)C=C2)c2ccccc21 (centres undefined)
39 | 42.8 | COc1cccc2c1C(=O)c1c(O)c3c(c(O)c1C2=O)C[C@@](O)(C(=O)CO)C[C@@H]3O[C@H]1C[C@H](N)[C@H](O)[C@H](C)O1 [DOXORUBICIN]

The molecules below were run on UACC-62 (assay: Growth inhibition of human UACC62 cells after 48 hrs by sulforhodamine B assay). Conditions: UACC-62, 48 h.
Type: functional

Row | Compound | GI50 [µM]
40 | CCOC(=O)C(CCc1cccc(N)c1)c1ccccc1 (centres undefined) | 102
41 | CCOC(=O)C(CCCc1ccc(N)cc1)c1ccccc1 (centres undefined) | > 100
42 | CCOC(=O)C(CCc1ccc(N)cc1)c1ccccc1 (centres undefined) | 23.3
43 | O=[N+]([O-])c1cccc(CCCO)c1 | > 250
44 | CCOC(=O)C(CCCc1cccc(N)c1)c1ccccc1 (centres undefined) | 125

These molecules were tested on SF-268 (assay: Growth inhibition of human SF268 cells after 48 hrs by sulforhodamine B assay). Conditions: SF-268, 48 h.
Type: functional

Row | Compound | GI50 [µM]
45 | CCOC(=O)C(CCCc1cccc(N=[N+]=[N-])c1)c1ccccc1 (centres undefined) | > 150
46 | CCOC(=O)C(CCc1cccc(N)c1)c1ccccc1 (centres undefined) | 159
47 | CCOC(=O)C(CCc1cccc(N=[N+]=[N-])c1)c1ccccc1 (centres undefined) | > 160
48 | CCOC(=O)C1CCC(c2ccc(N)cc2)c2ccccc21 (racemic) | 116
49 | CCOC(=O)C(CCc1ccc(N=[N+]=[N-])cc1)c1ccccc1 (centres undefined) | > 160
50 | CCOC(=O)C(CCCc1ccc(N)cc1)c1ccccc1 (centres undefined) | > 160
51 | CCOC(=O)C1CCC2(C=CC(=O)C=C2)c2ccccc21 (centres undefined) | 21.9
52 | CCOC(=O)C(CCCc1ccc([N+](=O)[O-])cc1)c1ccccc1 (centres undefined) | 23.2
53 | O=[N+]([O-])c1ccc(CCI)cc1 | 95.7
54 | CCOC(=O)C(CCc1ccc([N+](=O)[O-])cc1)c1ccccc1 (centres undefined) | > 150
55 | COc1cccc2c1C(=O)c1c(O)c3c(c(O)c1C2=O)C[C@@](O)(C(=O)CO)C[C@@H]3O[C@H]1C[C@H](N)[C@H](O)[C@H](C)O1 [DOXORUBICIN] | 0.094
56 | CCOC(=O)C(CCc1ccc(N)cc1)c1ccccc1 (centres undefined) | 51.8
57 | O=[N+]([O-])c1cccc(CCCO)c1 | > 250
58 | CCOC(=O)C(CCCc1ccc(N=[N+]=[N-])cc1)c1ccccc1 (centres undefined) | > 150
59 | CCOC(=O)C(CCCc1cccc(N)c1)c1ccccc1 (centres undefined) | > 160
60 | COC(=O)/C=C/c1cccc([N+](=O)[O-])c1 | 180
61 | COC(=O)/C=C/c1ccc([N+](=O)[O-])cc1 | > 240
62 | CCOC(=O)C(CCCc1cccc([N+](=O)[O-])c1)c1ccccc1 (centres undefined) | > 150
63 | CCOC(=O)C(CCc1cccc([N+](=O)[O-])c1)c1ccccc1 (centres undefined) | > 150

The molecules below were run on HepG2 (assay: Growth inhibition of human HepG2 cells after 48 hrs by sulforhodamine B assay). Conditions: not given.
Type: functional, cell-based

Row | Compound | growth inhibition (GI)
64 | COc1cc(C2c3c(cc4c(c3OC)OCO4)CC(COC(C)=O)C2COC(C)=O)cc(OC)c1O (centres undefined) | inactive

Source: ChEMBL document CHEMBL1773025, “Synthesis of tetrahydronaphthalene lignan esters by intramolecular cyclization of ethyl p-azidophenyl-2-phenylalkanoates and evaluation of the growth inhibition of human tumor cell lines” (2011)
